Measurements from paper PMC11277489, “Novel Piperazine Derivatives of Vindoline as Anticancer Agents” (International Journal of Molecular Sciences, 2024).
Like-named read-outs stand apart in the source and are kept apart here.

How the values were obtained:
Type in all cases: cell-based
NCI-H23 = test: NCI60 five-dose screen, Non-small Cell Lung Cancer; conditions: Homo sapiens; NCI-H23, Non-small Cell Lung Cancer; five-dose screen; read-out: GI50
MOLT-4 = test: NCI60 five-dose screen, Leukemia; conditions: Homo sapiens; MOLT-4, Leukemia; five-dose screen; read-out: GI50
OVCAR-3 = test: NCI60 five-dose screen, Ovarian Cancer; conditions: Homo sapiens; OVCAR-3, Ovarian Cancer; five-dose screen; read-out: GI50
KM12 = test: NCI60 five-dose screen, Colon Cancer; conditions: Homo sapiens; KM12, Colon Cancer; five-dose screen; read-out: GI50
PC-3 = test: NCI60 five-dose screen, Prostate Cancer; conditions: Homo sapiens; PC-3, Prostate Cancer; five-dose screen; read-out: GI50
UO-31 = test: NCI60 five-dose screen, Renal Cancer; conditions: Homo sapiens; UO-31, Renal Cancer; five-dose screen; read-out: GI50
UACC-257 = test: NCI60 five-dose screen, Melanoma; conditions: Homo sapiens; UACC-257, Melanoma; five-dose screen; read-out: GI50
A498 = test: NCI60 five-dose screen, Renal Cancer; conditions: Homo sapiens; A498, Renal Cancer; five-dose screen; read-out: GI50
OVCAR-8 = test: NCI60 five-dose screen, Ovarian Cancer; conditions: Homo sapiens; OVCAR-8, Ovarian Cancer; five-dose screen; read-out: GI50
SF-295 = test: NCI60 five-dose screen, CNS Cancer; conditions: Homo sapiens; SF-295, CNS Cancer; five-dose screen; read-out: GI50
U251 = test: NCI60 five-dose screen, CNS Cancer; conditions: Homo sapiens, U-251; U251, CNS Cancer; five-dose screen; read-out: GI50
COLO 205 = test: NCI60 five-dose screen, Colon Cancer; conditions: Homo sapiens; COLO 205, Colon Cancer; five-dose screen; read-out: GI50
NCI-H522 = test: NCI60 five-dose screen, Non-small Cell Lung Cancer; conditions: Homo sapiens; NCI-H522, Non-small Cell Lung Cancer; five-dose screen; read-out: GI50
NCI-H322M = test: NCI60 five-dose screen, Non-small Cell Lung Cancer; conditions: Homo sapiens, Non-small Cell Lung Cancer, five-dose screen, read-out: GI50
HCC-2998 = test: NCI60 five-dose screen, Colon Cancer; conditions: Homo sapiens; HCC-2998, Colon Cancer; five-dose screen; read-out: GI50
786–0 = test: NCI60 five-dose screen, Renal Cancer; conditions: Homo sapiens; 786–0, Renal Cancer; five-dose screen; read-out: GI50
NCI-H226 = test: NCI60 five-dose screen, Non-small Cell Lung Cancer; conditions: Homo sapiens; NCI-H226, Non-small Cell Lung Cancer; five-dose screen; read-out: GI50
SW-620 = test: NCI60 five-dose screen, Colon Cancer; conditions: Homo sapiens; SW-620, Colon Cancer; five-dose screen; read-out: GI50
MCF7 = test: NCI60 five-dose screen, Breast Cancer; conditions: Homo sapiens; MCF7, Breast Cancer; five-dose screen; read-out: GI50
BT-549 = test: NCI60 five-dose screen, Breast Cancer; conditions: Homo sapiens; BT-549, Breast Cancer; five-dose screen; read-out: GI50
SK-MEL-28 = test: NCI60 five-dose screen, Melanoma; conditions: Homo sapiens; SK-MEL-28, Melanoma; five-dose screen; read-out: GI50
MDA-MB-468 = test: NCI60 five-dose screen, Breast Cancer; conditions: Homo sapiens; MDA-MB-468, Breast Cancer; five-dose screen; read-out: GI50
HCT-15 = test: NCI60 five-dose screen, Colon Cancer; conditions: Homo sapiens; HCT-15, Colon Cancer; five-dose screen; read-out: GI50
SR = test: NCI60 five-dose screen, Leukemia; conditions: Homo sapiens, Leukemia, five-dose screen, read-out: GI50
A549/ATCC = test: NCI60 five-dose screen, Non-small Cell Lung Cancer; conditions: Homo sapiens; A549/ATCC, Non-small Cell Lung Cancer; five-dose screen; read-out: GI50
SK-MEL-2 = test: NCI60 five-dose screen, Melanoma; conditions: Homo sapiens; SK-MEL-2, Melanoma; five-dose screen; read-out: GI50
[1] = test system: 60 human tumor cell lines (NCI60); test: NCI60 five-dose screen, whole panel and sub-panel means
SNB-75 = test: NCI60 five-dose screen, CNS Cancer; conditions: Homo sapiens; SNB-75, CNS Cancer; five-dose screen; read-out: GI50
RXF 393 = test: NCI60 five-dose screen, Renal Cancer; conditions: Homo sapiens, RXF 393, Renal Cancer
CCRF-CEM = test: NCI60 five-dose screen, Leukemia; conditions: Homo sapiens, Leukemia, five-dose screen, read-out: GI50
MALME-3M = test: NCI60 five-dose screen, Melanoma; conditions: Homo sapiens; MALME-3M, Melanoma; five-dose screen; read-out: GI50
SK-OV-3 = test: NCI60 five-dose screen, Ovarian Cancer; conditions: Homo sapiens; SK-OV-3, Ovarian Cancer; five-dose screen; read-out: GI50
M14 = test: NCI60 five-dose screen, Melanoma; conditions: Homo sapiens; M14, Melanoma; five-dose screen; read-out: GI50
SN12C = test: NCI60 five-dose screen, Renal Cancer; conditions: Homo sapiens, Renal Cancer, five-dose screen, read-out: GI50
RPMI-8226 = test: NCI60 five-dose screen, Leukemia; conditions: Homo sapiens; RPMI-8226, Leukemia; five-dose screen; read-out: GI50
[2] = Homo sapiens, 60 cell, mean over all 60 cell lines, read-out: GI50 Mean
[3] = Homo sapiens, mean over Breast Cancer panel, read-out: GI50 Mean
[4] = Homo sapiens, mean over CNS Cancer panel, read-out: GI50 Mean
[5] = Homo sapiens, mean over Colon Cancer panel, read-out: GI50 Mean
[6] = Homo sapiens, mean over Leukemia panel, read-out: GI50 Mean
[7] = Homo sapiens, mean over Melanoma panel, read-out: GI50 Mean
[8] = Homo sapiens, mean over Non-small Cell Lung Cancer panel, read-out: GI50 Mean
[9] = Homo sapiens, mean over Ovarian Cancer panel, read-out: GI50 Mean
[10] = Homo sapiens, mean over Prostate Cancer panel, read-out: GI50 Mean
[11] = Homo sapiens, mean over Renal Cancer panel, read-out: GI50 Mean

CC[C@]12C=CCN3CC[C@@]4(c5ccc(OC)cc5N(C)[C@H]4[C@@](O)(C(=O)OC)[C@@H]1OC(=O)CCCN1CCN(c4ccc(C(F)(F)F)cc4)CC1)[C@@H]32 [Compound 22]
GI50 (NCI-H23): 4.57 µM
GI50 (MOLT-4): 1.95 µM
GI50 (OVCAR-3): 2.45 µM
GI50 (KM12): 2.14 µM
GI50 (PC-3): 2.45 µM
GI50 (UO-31): 1.86 µM
GI50 (UACC-257): 1.82 µM
GI50 (A498): 3.72 µM
GI50 (OVCAR-8): 3.02 µM
GI50 (SF-295): 1.95 µM
GI50 (U251): 2.24 µM
GI50 (COLO 205): 1.78 µM
GI50 (NCI-H522): 1.91 µM
GI50 (NCI-H322M): 3.72 µM
GI50 (HCC-2998): 1.82 µM
GI50 (786–0): 2.57 µM
GI50 (NCI-H226): 2.88 µM
GI50 (SW-620): 2.95 µM
GI50 (MCF7): 2 µM
GI50 (BT-549): 3.02 µM
GI50 (SK-MEL-28): 1.95 µM
GI50 (MDA-MB-468): 1.38 µM
GI50 (HCT-15): 1.82 µM
GI50 (SR): 1.7 µM
GI50 (A549/ATCC): 2.95 µM
GI50 (SK-MEL-2): 2.19 µM
GI50 [1, 2]: < 4 µM
GI50 [1, 3]: 2.51 µM
GI50 [1, 4]: 2.47 µM
GI50 [1, 5]: 2.02 µM
GI50 [1, 6]: 1.77 µM
GI50 [1, 7]: 1.98 µM
GI50 [1, 8]: 2.88 µM
GI50 [1, 9]: 3.05 µM
GI50 [1, 10]: 2.67 µM
GI50 [1, 11]: 2.59 µM
GI50 ([1]; mean over all 60 cell lines, read-out: GI50 Mean): 2.44 µM
GI50 (SNB-75): 1.66 µM
GI50 (RXF 393): 1.55 µM
GI50 (CCRF-CEM): 1.86 µM
GI50 (MALME-3M): 1.58 µM
GI50 (SK-OV-3): 3.72 µM
GI50 (M14): 1.86 µM
GI50 (SN12C): 2.63 µM
GI50 (RPMI-8226): 2.04 µM

CC[C@]12C=CCN3CC[C@@]4(c5ccc(OC)cc5N(C)[C@H]4[C@@](O)(C(=O)OC)[C@@H]1OC(=O)CCCN1CCN(Cc4ccc(C(F)(F)F)cc4)CC1)[C@@H]32 [Compound 23]
GI50 (NCI-H23): 1.91 µM
GI50 (MOLT-4): 1.15 µM
GI50 (OVCAR-3): 1.55 µM
GI50 (KM12): 1.74 µM
GI50 (PC-3): 1.58 µM
GI50 (UO-31): 1.58 µM
GI50 (UACC-257): 1.74 µM
GI50 (A498): 1.62 µM
GI50 (OVCAR-8): 1.82 µM
GI50 (SF-295): 1.78 µM
GI50 (U251): 1.66 µM
GI50 (COLO 205): 1.58 µM
GI50 (NCI-H522): 1.7 µM
GI50 (NCI-H322M): 2.24 µM
GI50 (HCC-2998): 1.51 µM
GI50 (786–0): 1.48 µM
GI50 (NCI-H226): 2.04 µM
GI50 (SW-620): 1.55 µM
GI50 (MCF7): 1.55 µM
GI50 (BT-549): 1.66 µM
GI50 (SK-MEL-28): 1.62 µM
GI50 (MDA-MB-468): 1 µM
GI50 (HCT-15): 1.74 µM
GI50 (SR): 1.66 µM
GI50 (A549/ATCC): 1.78 µM
GI50 (SK-MEL-2): 1.78 µM
GI50 [1, 2]: 1.65 µM
GI50 [1, 3]: 1.53 µM
GI50 [1, 4]: 1.57 µM
GI50 [1, 5]: 1.64 µM
GI50 [1, 6]: 1.71 µM
GI50 [1, 7]: 1.62 µM
GI50 [1, 8]: 1.8 µM
GI50 [1, 9]: 1.77 µM
GI50 [1, 10]: 1.58 µM
GI50 [1, 11]: 1.63 µM
GI50 ([1]; Homo sapiens, on almost all cell lines, five-dose screen, read-out: GI50): < 2 µM
GI50 (SNB-75): 1.45 µM
GI50 (RXF 393): 1.35 µM
GI50 (CCRF-CEM): 2.04 µM
GI50 (MALME-3M): 1.58 µM
GI50 (SK-OV-3): 2 µM
GI50 (M14): 1.55 µM
GI50 (SN12C): 2.09 µM
GI50 (RPMI-8226): 2 µM

CC[C@]12C=CCN3CC[C@@]4(c5ccc(OC)cc5N(C)[C@H]4[C@@](O)(C(=O)OC)[C@@H]1OC(=O)CCCN1CCN(Cc4ccc(F)cc4)CC1)[C@@H]32 [Compound 24]
GI50 (NCI-H23): 13.2 µM
GI50 (MOLT-4): 1.74 µM
GI50 (OVCAR-3): 10.7 µM
GI50 (KM12): 10.5 µM
GI50 (PC-3): 4.17 µM
GI50 (UO-31): 3.09 µM
GI50 (UACC-257): 2 µM
GI50 (A498): 12.9 µM
GI50 (OVCAR-8): 14.5 µM
GI50 (SF-295): 12.6 µM
GI50 (U251): 7.59 µM
GI50 (COLO 205): 1.95 µM
GI50 (NCI-H522): 13.8 µM
GI50 (NCI-H322M): 8.32 µM
GI50 (HCC-2998): 2.19 µM
GI50 (786–0): 6.31 µM
GI50 (NCI-H226): 10.5 µM
GI50 (SW-620): 13.5 µM
GI50 (MCF7): 3.98 µM
GI50 (BT-549): 7.24 µM
GI50 (SK-MEL-28): 4.68 µM
GI50 (MDA-MB-468): 1.74 µM
GI50 (HCT-15): 5.13 µM
GI50 (SR): 3.47 µM
GI50 (A549/ATCC): 10.2 µM
GI50 (SK-MEL-2): 15.1 µM
GI50 [1, 2]: 6.84 µM
GI50 [1, 3]: 4.25 µM
GI50 [1, 4]: 8.08 µM
GI50 [1, 5]: 6.09 µM
GI50 [1, 6]: 3.19 µM
GI50 [1, 7]: 5.92 µM
GI50 [1, 8]: 9.83 µM
GI50 [1, 9]: 10.1 µM
GI50 [1, 10]: 7.32 µM
GI50 [1, 11]: 5.58 µM
GI50 (SNB-75): 1.12 µM
GI50 (RXF 393): 1 µM
GI50 (CCRF-CEM): 4.07 µM
GI50 (MALME-3M): 2.29 µM
GI50 (SK-OV-3): 12 µM
GI50 (M14): 5.5 µM
GI50 (SN12C): 8.32 µM
GI50 (RPMI-8226): 4.17 µM
